Results on one molecule are retold here after US20040110124A1, “Method of enhancing radiation resistance of normal cells” (priority 2002, published 2004).

Common to all, as to type: cell-based
Assay [1] deals with MDCK epithelial cells. As to the kind of experiment: Cell survival after irradiation, MTT assay, normal epithelial cells. The following applies: Canis lupus familiaris, light or radiation study, irradiated at 20 Gy, 1.0 μM valinomycin for 2 hours, 58% without valinomycin, read-out: relative survival (% of control). As for the experimental part: FIG. 4. Effect of valinomycin on radiation response of normal epithelial cells. MDCK epithelial cells were irradiated with 0-20 Gy in the presence or absence of valinomycin. Valinomycin (0.01-1.0 μM) was added in the growth media immediately prior to irradiation, and removed at 2 hours or 3 days post irradiation. Three days after irradiation, cell survival was assessed by using the MTT assay.
(§1) Three normal cell lines (Rat-1, a fibroblast cell line; MS-1, an endothelial cell line and MDCK, a epithelial cell line) were studied. All three cell lines were cultured in Dulbecco's modified Eagle medium supplemented with 10% fetal calf serum, 100 U/ml penicillin and 100 ug/ml streptomycin (Gibco BRL, Gaithersburg, Md.) at 37° C. with 5% CO2. Cells were irradiated with a ^137Cs source at a dose rate of 300 cGy/min, and the viability of cells was measured by the MTT assay. Valinomycin was used as an agent to hyperpolarize the plasma membrane. The membrane potential was recorded with a fluorescent probe bis-oxonol, a negatively charged potential-sensitive fluorescent dye, which is distributed across the plasma membrane. Binding of this probe to intracellular components is dependent upon the membrane potential.

Assay [2] has as its system Rat-1 fibroblast cells. As to the kind of experiment: Cell survival after irradiation, MTT assay, normal fibroblast cells. The following applies: light or radiation study, Rat-1, irradiated at 20 Gy, 1.0 μM valinomycin for 2 hours, 25% without valinomycin, read-out: relative survival (% of control). As for the experimental part:
(§2) FIG. 2. Effect of valinomycin on radiation response of normal fibroblast cells. Rat-1 fibroblast cells were irradiated with 0-20 Gy in presence or absence of valinomycin. Valinomycin (0.01-1.0 μM) was added in the growth media immediately prior to irradiation, and removed at 2 hours or 3 days post irradiation. Three days after irradiation, cell survival was assessed by using the MTT assay.
as §1
A general note: Formazan colour is commonly taken as a measure of viable cells.

Assay [3] has as its system Rat-1 cells. The assay is described as follows: Membrane potential recorded with fluorescent probe bis-oxonol. The method, then: FIG. 1. Fluorescence measurement of Rat-1 cells before (Line A) and after (Line B) valinomycin (1.0 μM) treatment.
as §1

The test system of assay [4] is MS1 endothelial cells. As to the kind of experiment: Cell survival after irradiation, MTT assay, normal endothelial cells. The following applies: light or radiation study, MS-1, irradiated at 20 Gy, 1.0 μM valinomycin for 2 hours, 45% without valinomycin, read-out: relative survival (% of control). The method, then:
(§3) FIG. 3. Effect of valinomycin on radiation response of normal endothelial cells. MS1 endothelial cells were irradiated with 0-20 Gy in the presence or absence of valinomycin. Valinomycin (0.01-1.0 μM) was added in the growth media immediately prior to irradiation, and removed at 2 hours or 3 days post irradiation. Three days after irradiation, cell survival was assessed by using the MTT assay.
as §1

Assay [5] deals with Rat-1, MS-1 and MDCK cells. The assay is described as follows: Cell survival after irradiation, MTT assay, all three normal cell lines together. The following applies: valinomycin 0.01 μM to 1.0 μM. The method, then:
as §2, §3
FIG. 4. Effect of valinomycin on radiation response of normal epithelial cells. […] Three days after irradiation, cell survival was assessed by using the MTT assay.
Three normal cell lines (Rat-1, a fibroblast cell line; MS-1, an endothelial cell line and MDCK, a epithelial cell line) were studied. […] Cells were irradiated with a ^137Cs source at a dose rate of 300 cGy/min, and the viability of cells was measured by the MTT assay. […] The membrane potential was recorded with a fluorescent probe bis-oxonol, a negatively charged potential-sensitive fluorescent dye, which is distributed across the plasma membrane. […]

Regarding `CC(C)[C@@H]1NC(=O)[C@H](C)OC(=O)[C@@H](C(C)C)NC(=O)[C@@H](C(C)C)OC(=O)[C@H](C(C)C)NC(=O)[C@H](C)OC(=O)[C@@H](C(C)C)NC(=O)[C@@H](C(C)C)OC(=O)[C@H](C(C)C)NC(=O)[C@H](C)OC(=O)[C@@H](C(C)C)NC(=O)[C@@H](C(C)C)OC1=O` [valinomycin], the activity at 1 µM in assay [1] is 82%; in assay [2], 67%; in assay [4], 92%. Moreover, the “fluorescent reading, plasma membrane polarization” value in assay [3] (valinomycin 1.0 μM, incubation 2 hours, Rat-1 cells (FIG. 1)) was “decrease in fluorescent reading”. In assay [3] (valinomycin 0.01-1 nM for 2 hours or 3 days), the “decrease of intracellular fluorescence (bis-oxonol)” value was 55-60%. In addition, the “intracellular fluorescence after valinomycin treatment” value in assay [3] (valinomycin 0.01-1 nM for 2 hours or 3 days, 0.44-0.5 prior to treatment) is 0.18-0.20. Further, the “radiation protective effect across concentrations” value in assay [5] is “very similar radiation protective effects”.
